Experimental findings from the supplement of paper PMC11208160 are described below.

The nature of this series: recombinant barcode read abundance after kanamycin selection (control-corrected) (log10(CPM+1)); higher = more efficient recombination; sequences stand for … in AGTGCAGAGAAAATCGGCCAGTTTTCTCTGCCTGCAGTCCGCATGCCGT…AGATTTATGCAGCGGACTGCCTTTCTCCCAAAGTGATAAACCGGACAGTATCATGGACCGGTTTTCCCGGTAATCCGTATTTGCAAGGTTGGTTTCACT; site = the 11-nt target. The method, boiled down:
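Recombination efficiency draws on barcodes counted at recombinant junctions in a pooled E. coli screen of targets paired with IS621 bridge RNA target-binding loops. The counts were converted to counts per million, averaged and corrected against the chloramphenicol/ampicillin LB agar control, then reported as log10(CPM+1). Selection plates held chloramphenicol/ampicillin/kanamycin with 0.1 mM IPTG, with two replicates per condition.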
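Note: IS621 recombinase and bridge RNA in Escherichia coli cells.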

Regarding “TCTCGAGCTTGGGTTCTAACCTGTTGCGA (site TCTCGAGCTTC)”, the “recombinant barcode read abundance (log10)” value came to 0.78.
With “TCTCGGACTTGGGTTCTAACCTGTTGCCT (site TCACGGACTAG)” the figure was 0.147.
With “TCTCGGACTTGGGTTCTAACCTGTTGCCT (site TCCCGGACTAG)” the figure was 0.0144; with “TCTCGGACTTGGGTTCTAACCTGTTGCCT (site TCGCGGACTAG)”, 0.0137.
Next, “TCTCGGACTTGGGTTCTAACCTGTTGCCT (site TCTCGGACTAG)”: 0.249; “TCTCTCGCTTGGGTTCTAACCTGTTGCCT (site CAGAATCCTCC)”: 0.108; “TCTCTCGCTTGGGTTCTAACCTGTTGCCT (site TCTCTCGCTAG)”: 0.47.
In the case of “TCTGATCCTTGGGTTCTAACCTGTTGCCT (site TCTCACCCTAG)”, the “recombinant barcode read abundance (log10)” value is 0.0615.
Take “TCTGATCCTTGGGTTCTAACCTGTTGCCT (site TCTGATCCTAG)”: the “recombinant barcode read abundance (log10)” value worked out at 0.7.
Next, “TCTGGGCCTTGGGTTCTAACCTGTTGCTA (site TCTGGGCCTAA)”: 0.42; “TCTGGGCCTTGGGTTCTAACCTGTTGCTA (site TCTGGGCCTTA)”: 0.364; “TCTTAGACTTGGGTTCTAACCTGTTGCGA (site CAAACCTCTGT)”: 0.0411.
With “TCTTAGACTTGGGTTCTAACCTGTTGCGA (site TCTTAGACTTC)” the figure was 0.638; with “TCTTAGACTTGGGTTCTAACCTGTTGCGG (site ACTTAGACTCC)”, 0.172.
Next, “TCTTAGACTTGGGTTCTAACCTGTTGCGG (site TCTTAGACTCC)”: 1.47; “TCTTATTCTTGGGTTCTAACCTGTTGCGT (site TCTAATTCTAC)”: 0.0715.
As for “TCTTATTCTTGGGTTCTAACCTGTTGCGT (site TCTCATTCTAC)”, the “recombinant barcode read abundance (log10)” value was 0.0847.
Next, “TCTTATTCTTGGGTTCTAACCTGTTGCGT (site TCTGATTCTAC)”: 0.0368; “TCTTATTCTTGGGTTCTAACCTGTTGCGT (site TCTTATTCTAC)”: 0.258.
For the sequence “TCTTGGACTTGGGTTCTAACCTGTTGCAC (site AGGGACCCTAG)”, the “recombinant barcode read abundance (log10)” value came out at 0.0242.
Next, “TCTTGGACTTGGGTTCTAACCTGTTGCAC (site TCTTGGACTGT)”: 0.104; “TCTTGGACTTGGGTTCTAACCTGTTGCTC (site TCTTGGACTAA)”: 0.0489; “TCTTGGACTTGGGTTCTAACCTGTTGCTC (site TCTTGGACTCA)”: 0.153.
Next, “TCTTGGACTTGGGTTCTAACCTGTTGCTC (site TCTTGGACTGA)”: 0.165; “TCTTGGACTTGGGTTCTAACCTGTTGCTC (site TCTTGGACTTA)”: 0.0183; “TCTTGTCCTTGGGTTCTAACCTGTTGCGG (site TCTTGTCCTAC)”: 0.0164.
Next, “TCTTGTCCTTGGGTTCTAACCTGTTGCGG (site TCTTGTCCTCC)”: 0.526; “TCTTGTCCTTGGGTTCTAACCTGTTGCGG (site TCTTGTCCTGC)”: 0.104; “TCTTGTCCTTGGGTTCTAACCTGTTGCGG (site TCTTGTCCTTC)”: 0.0135.
Consider “TCTTTAGCTTGGGTTCTAACCTGTTGCAG (site CTAAGGTCTTA)”, for which the “recombinant barcode read abundance (log10)” value amounted to 0.24.
For “TCTTTAGCTTGGGTTCTAACCTGTTGCAG (site TCTTTAGCTCT)”, the “recombinant barcode read abundance (log10)” value was determined as 0.236.
Next, “TGAAACTCTTGGGTTCTAACCTGTTGCGG (site GTCGGTCCTGT)”: 0.27.
Take “TGAAACTCTTGGGTTCTAACCTGTTGCGG (site TGAAACTCTCC)”: the “recombinant barcode read abundance (log10)” value came to 1.16.
With “TGAAAGACTTGGGTTCTAACCTGTTGCCG (site GACGGACCTAT)” the figure was 0.475.
With “TGAAAGACTTGGGTTCTAACCTGTTGCCG (site TGAAAGACTCG)” the figure was 0.762; with “TGAAGGTCTTGGGTTCTAACCTGTTGCCT (site TGAAAGTCTAG)”, 0.213; with “TGAAGGTCTTGGGTTCTAACCTGTTGCCT (site TGAACGTCTAG)”, 0.175.
With “TGAAGGTCTTGGGTTCTAACCTGTTGCCT (site TGAAGGTCTAG)” the figure was 0.485; with “TGAAGGTCTTGGGTTCTAACCTGTTGCCT (site TGAATGTCTAG)”, 0.362; with “TGACCTACTTGGGTTCTAACCTGTTGCCA (site CTCTACTCTAC)”, 0.242.
Consider “TGACCTACTTGGGTTCTAACCTGTTGCCA (site TGACCTACTTG)”, for which the “recombinant barcode read abundance (log10)” value is 0.133.
With “TGACTCTCTTGGGTTCTAACCTGTTGCCT (site TAACTCTCTAG)” the figure was 0.163; with “TGACTCTCTTGGGTTCTAACCTGTTGCCT (site TCACTCTCTAG)”, 0.172.
With “TGACTCTCTTGGGTTCTAACCTGTTGCCT (site TGACTCTCTAG)” the figure was 1.02; with “TGACTCTCTTGGGTTCTAACCTGTTGCCT (site TTACTCTCTAG)”, 0.228; with “TGAGAAGCTTGGGTTCTAACCTGTTGCCT (site TGACCAGCTAG)”, 0.299.
Next, “TGAGAAGCTTGGGTTCTAACCTGTTGCCT (site TGAGAAGCTAG)”: 1.1.
As for “TGAGCACCTTGGGTTCTAACCTGTTGCCT (site AGAGGACCTAG)”, the “recombinant barcode read abundance (log10)” value is 0.158.
For the sequence “TGAGCACCTTGGGTTCTAACCTGTTGCCT (site TGAGCACCTAG)”, the “recombinant barcode read abundance (log10)” value was 1.74.
With “TGAGGCACTTGGGTTCTAACCTGTTGCCT (site TGAGGATCTAG)”, the “recombinant barcode read abundance (log10)” value is 0.03.
Next, “TGAGGCACTTGGGTTCTAACCTGTTGCCT (site TGAGGCACTAG)”: 0.474; “TGAGGGCCTTGGGTTCTAACCTGTTGCCT (site AGAGGTCCTAG)”: 0.186.
With “TGAGGGCCTTGGGTTCTAACCTGTTGCCT (site TGAGGGCCTAG)” the figure was 1.26; with “TGAGGGGCTTGGGTTCTAACCTGTTGCCT (site TGAGAGGCTAG)”, 0.275.
“TGAGGGGCTTGGGTTCTAACCTGTTGCCT (site TGAGCGGCTAG)”: the “recombinant barcode read abundance (log10)” value amounted to 0.242.
With “TGAGGGGCTTGGGTTCTAACCTGTTGCCT (site TGAGGGGCTAG)” the figure was 1.24; with “TGAGGGGCTTGGGTTCTAACCTGTTGCCT (site TGAGTGGCTAG)”, 0.197.
As for “TGAGGGTCTTGGGTTCTAACCTGTTGCTT (site AGAGGGTCTAA)”, the “recombinant barcode read abundance (log10)” value stood at 0.497.
With “TGAGGGTCTTGGGTTCTAACCTGTTGCTT (site CGAGGGTCTAA)” the figure was 0.136; with “TGAGGGTCTTGGGTTCTAACCTGTTGCTT (site GGAGGGTCTAA)”, 0.0368.
Next, “TGAGGGTCTTGGGTTCTAACCTGTTGCTT (site TGAGGGTCTAA)”: 0.452.
With “TGAGTCTCTTGGGTTCTAACCTGTTGCCA (site ACCCAGCCTCT)” the figure was 0.0473.
As to “TGAGTCTCTTGGGTTCTAACCTGTTGCCA (site TGAGTCTCTTG)”, the “recombinant barcode read abundance (log10)” value was determined as 1.47.
Next, “TGAGTTCCTTGGGTTCTAACCTGTTGCTT (site TGAGTACCTAA)”: 0.0626.
Next, “TGAGTTCCTTGGGTTCTAACCTGTTGCTT (site TGAGTCCCTAA)”: 0.0401; “TGAGTTCCTTGGGTTCTAACCTGTTGCTT (site TGAGTGCCTAA)”: 0.00865.
With “TGAGTTCCTTGGGTTCTAACCTGTTGCTT (site TGAGTTCCTAA)” the figure was 0.719; with “TGATAGACTTGGGTTCTAACCTGTTGCAC (site AGAGAGACTGT)”, 0.0172; with “TGATAGACTTGGGTTCTAACCTGTTGCAC (site TGATAGACTGT)”, 1.38.
In the case of “TGATTTCCTTGGGTTCTAACCTGTTGCCT (site AGATTGCCTAG)”, the “recombinant barcode read abundance (log10)” value amounted to 0.
“TGATTTCCTTGGGTTCTAACCTGTTGCCT (site TGATTTCCTAG)”: the “recombinant barcode read abundance (log10)” value was 0.
With “TGCAATACTTGGGTTCTAACCTGTTGCAT (site ACAGTATCTCA)” the figure was 0.054; with “TGCAATACTTGGGTTCTAACCTGTTGCAT (site TGCAATACTAT)”, 0.136; with “TGCAGGGCTTGGGTTCTAACCTGTTGCGG (site GCATACACTTG)”, 0.177.
With “TGCAGGGCTTGGGTTCTAACCTGTTGCGG (site TGCAGGGCTCC)” the figure was 1.26; with “TGCCAGACTTGGGTTCTAACCTGTTGCAT (site TGCCAGACTAT)”, 1.12.
With “TGCCAGACTTGGGTTCTAACCTGTTGCAT (site TGCCAGCCTAG)” the figure was 0.466.
